Experimental findings from article doi:10.1101/2023.04.18.537371v1 (bioRxiv, 2023) are described below.

One may read the fraction unbound as the share of the substance not bound to proteins or other matrix. Higher therefore signals much free substance. As usually defined, the pIC50 is the negative decadic logarithm of the IC50, by convention in mol/L.

pIC50: −log10 of the molar value. Peptide text beside a SMILES is read from it.

For one series, the system named is dog hepatocytes. Nature of the series: Metabolite identification in hepatocytes. The series is classed as in vitro ADME. Particulars: cryopreserved dog hepatocytes, FC-12738 10 μM, 37 °C, 240 min, LC-UV-MS.
The next series has as its system human hepatocytes. In words: LDH release cytotoxicity in the CYP induction assay. It counts as cell-based. Particulars: three donors, 0.100, 1.00, 3.00, 10.0 and 15.0 μM. (In general: LDH leaks from cells whose membrane has failed.)
Series [1] can be described thus: In vitro protein binding, rapid equilibrium dialysis. It counts as in vitro ADME. The following applies: SD, rat, plasma. A general note: Equilibrium dialysis compares concentrations on both sides of a semipermeable membrane.
A further series addresses CYP2D6 (Homo sapiens, UniProt P10635). Nature of the series: CYP time-dependent inhibition assay. The series is classed as in vitro ADME.
The next series deals with MATE2-K (Homo sapiens, UniProt Q86VL8). Nature of the series: Transporter inhibition in HEK293 cells. The series is classed as in vitro ADME.
Chain of MATE2-K (Q86VL8 1-566 isoform Q86VL8-3): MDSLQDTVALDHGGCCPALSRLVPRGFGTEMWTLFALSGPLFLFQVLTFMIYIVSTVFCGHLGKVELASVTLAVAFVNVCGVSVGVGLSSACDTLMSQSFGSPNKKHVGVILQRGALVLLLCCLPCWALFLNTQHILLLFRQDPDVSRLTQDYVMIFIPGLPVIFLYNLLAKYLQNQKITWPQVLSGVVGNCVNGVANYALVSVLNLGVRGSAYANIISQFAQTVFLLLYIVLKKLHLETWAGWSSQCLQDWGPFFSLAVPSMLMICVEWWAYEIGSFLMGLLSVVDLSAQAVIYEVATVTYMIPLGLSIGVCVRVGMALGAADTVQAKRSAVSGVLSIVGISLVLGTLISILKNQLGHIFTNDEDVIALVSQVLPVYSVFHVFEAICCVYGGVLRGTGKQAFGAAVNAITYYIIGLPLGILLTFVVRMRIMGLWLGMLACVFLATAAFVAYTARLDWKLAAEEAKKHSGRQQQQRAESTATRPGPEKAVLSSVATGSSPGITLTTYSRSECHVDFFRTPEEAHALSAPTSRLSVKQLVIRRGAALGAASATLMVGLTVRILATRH
Another series addresses T1, CYP2C8 (Homo sapiens, UniProt P10632).
T1 sequence (P10632 1-490): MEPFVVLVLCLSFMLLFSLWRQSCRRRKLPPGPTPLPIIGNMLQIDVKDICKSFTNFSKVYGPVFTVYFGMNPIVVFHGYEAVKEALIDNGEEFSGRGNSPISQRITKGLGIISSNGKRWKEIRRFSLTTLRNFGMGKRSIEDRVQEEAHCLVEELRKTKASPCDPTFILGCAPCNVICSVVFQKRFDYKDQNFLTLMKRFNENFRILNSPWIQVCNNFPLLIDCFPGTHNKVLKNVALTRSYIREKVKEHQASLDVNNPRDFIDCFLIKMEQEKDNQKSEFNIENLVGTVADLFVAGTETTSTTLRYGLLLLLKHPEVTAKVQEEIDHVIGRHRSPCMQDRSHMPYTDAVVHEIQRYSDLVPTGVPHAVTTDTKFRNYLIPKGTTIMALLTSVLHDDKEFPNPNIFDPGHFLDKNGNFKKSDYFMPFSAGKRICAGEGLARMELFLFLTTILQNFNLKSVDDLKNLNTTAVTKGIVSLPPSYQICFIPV
Nature of the series: CYP time-dependent inhibition assay. It counts as in vitro ADME.

Setting [2] is: cutoff IC50 shift >= 1.5-fold, 30 min pre-incubation ± NADPH.

Chain of CYP2D6 (P10635 whole entry): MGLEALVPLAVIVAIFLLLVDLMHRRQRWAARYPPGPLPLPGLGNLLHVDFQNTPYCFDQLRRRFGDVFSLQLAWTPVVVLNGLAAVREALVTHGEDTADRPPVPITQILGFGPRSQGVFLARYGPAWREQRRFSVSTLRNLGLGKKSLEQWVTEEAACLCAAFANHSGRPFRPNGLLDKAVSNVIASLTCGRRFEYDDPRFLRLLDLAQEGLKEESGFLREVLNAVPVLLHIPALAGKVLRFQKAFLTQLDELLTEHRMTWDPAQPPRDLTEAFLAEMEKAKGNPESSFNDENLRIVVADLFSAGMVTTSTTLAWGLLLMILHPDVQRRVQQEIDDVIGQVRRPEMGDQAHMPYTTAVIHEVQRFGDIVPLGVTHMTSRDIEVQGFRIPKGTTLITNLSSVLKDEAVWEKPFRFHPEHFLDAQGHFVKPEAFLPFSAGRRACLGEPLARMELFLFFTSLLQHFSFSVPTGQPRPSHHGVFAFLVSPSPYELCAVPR

In the case of `CC(C)[C@@H](NC(=O)[C@H](N)Cc1ccc(O)cc1)C(=O)N[C@H](CC(=O)O)C(=O)N[C@H](CCCCN)C(=O)N[C@H](CCCNC(=N)N)C(=O)O` [FC-12738, (D-Tyr)-(D-Val)-(D-Asp)-(D-Lys)-(D-Arg)] (HELM PEPTIDE1{[dY].[dV].[dD].[dK].[dR]}$$$$V2.0), the “Relative Abundance (UV%)” value in the series on dog hepatocytes was found to be 80.76%. Further, in the series with human hepatocytes, the “Cytotoxicity (released LDH)” value is “no cytotoxicity”. In addition, in series [1], the fraction unbound at 6 h, 0.2 µM is 0.482; the fraction unbound at 6 h, 2 µM was 0.443; the fraction unbound at 6 h, 10 µM was 0.493. Also, the pIC50 against CYP2D6 is < 4.00. Also, the “Time-dependent inhibition of CYP2D6” value on CYP2D6 (setting [2]) is reported as “no time-dependent inhibition”. Also, the pIC50 at MATE2-K is < 4.00. In addition, the pIC50 against CYP2C8 was < 4.00. The “Time-dependent inhibition of CYP2C8” value on CYP2C8 (setting [2]) is “no time-dependent inhibition”.
